Here are results for 2 compounds from patent US9409893B2, “Heteroaryl derivatives and uses thereof” (Jacobus Pharmaceutical Company, Inc., priority 2012, dated 2016).

One data set relates to P. falciparum strain D6. Description: [3H]-hypoxanthine growth inhibition assay, P. falciparum D6. The data set is classed as cell-based. The settings on record: Plasmodium falciparum; P. falciparum D6 (sensitive to chloroquine and pyrimethamine), [3H]-hypoxanthine incorporation; read-out: D6 IC50. Summed up: (§1)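 Parasites cultured in human O Rh+ RBCs in RPMI-1640-LPLF (low PABA and folic acid) with 10% human plasma, pH 6.9, 37° C, 5% O2/5% CO2/90% N2. Sorbitol-synchronised ring-stage cultures started at 1% parasitaemia; growth measured as [3H]-hypoxanthine incorporation in hypoxanthine-free medium. Compound stocks 1 mM in DMSO.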

The test system of the next data set is P. falciparum strain W2. The data set is described as follows: [3H]-hypoxanthine growth inhibition assay, P. falciparum W2. The data set is classed as cell-based. The conditions noted are these: Plasmodium falciparum; P. falciparum W2 (resistant to chloroquine and pyrimethamine), [3H]-hypoxanthine incorporation; read-out: W2 IC50. Summed up:
as §1

The target in a further data set is hERG potassium channel (Homo sapiens, UniProt Q12809). The data set is described as follows: Whole cell patch clamp of cloned hERG potassium channels expressed in HEK293 cells. The data set is classed as cell-based. An excerpt: For in vitro testing, the functional hERG assay using conventional patch clamp electrophysiology is considered the gold standard for assessment of drug interactions with the hERG potassium channel (Yao et al., Br. J. Pharmacol. 2008, 154, 1446-1456). In this assay, hERG channels are expressed in a human embryonic kidney (HEK293) cell line that lacks endogenous IKr.
hERG potassium channel, sequence (Q12809 whole entry): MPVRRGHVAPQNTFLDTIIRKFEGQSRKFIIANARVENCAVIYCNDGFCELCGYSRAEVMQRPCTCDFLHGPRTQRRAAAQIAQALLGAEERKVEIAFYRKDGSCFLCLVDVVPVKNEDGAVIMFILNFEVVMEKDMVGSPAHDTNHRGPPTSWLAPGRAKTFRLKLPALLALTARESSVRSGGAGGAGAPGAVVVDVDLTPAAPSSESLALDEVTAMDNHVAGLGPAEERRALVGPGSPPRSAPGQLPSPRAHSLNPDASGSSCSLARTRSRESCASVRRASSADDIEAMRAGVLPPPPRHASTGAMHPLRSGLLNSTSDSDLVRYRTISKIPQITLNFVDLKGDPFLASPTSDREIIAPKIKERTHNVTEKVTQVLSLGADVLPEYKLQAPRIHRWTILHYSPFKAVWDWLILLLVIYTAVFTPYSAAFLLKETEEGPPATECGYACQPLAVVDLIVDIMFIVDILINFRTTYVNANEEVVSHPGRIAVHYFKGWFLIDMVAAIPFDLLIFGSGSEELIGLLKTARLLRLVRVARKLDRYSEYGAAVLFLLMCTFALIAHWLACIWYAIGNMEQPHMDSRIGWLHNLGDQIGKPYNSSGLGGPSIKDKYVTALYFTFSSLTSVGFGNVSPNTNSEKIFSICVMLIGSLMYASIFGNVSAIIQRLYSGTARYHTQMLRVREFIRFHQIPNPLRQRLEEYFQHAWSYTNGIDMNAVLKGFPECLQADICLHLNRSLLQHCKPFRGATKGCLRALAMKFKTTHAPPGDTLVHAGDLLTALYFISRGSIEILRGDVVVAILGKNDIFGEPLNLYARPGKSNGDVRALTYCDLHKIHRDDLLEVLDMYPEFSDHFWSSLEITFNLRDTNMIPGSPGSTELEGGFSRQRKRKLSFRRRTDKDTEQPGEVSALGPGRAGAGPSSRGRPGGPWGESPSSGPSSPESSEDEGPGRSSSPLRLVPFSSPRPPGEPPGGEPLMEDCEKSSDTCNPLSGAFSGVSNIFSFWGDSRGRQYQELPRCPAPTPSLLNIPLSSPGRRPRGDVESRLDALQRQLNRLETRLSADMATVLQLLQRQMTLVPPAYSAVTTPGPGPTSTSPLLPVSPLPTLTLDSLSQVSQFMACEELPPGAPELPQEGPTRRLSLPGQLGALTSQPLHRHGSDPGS
The objective of this study was to examine the in vitro effects of test articles on the hERG (human ether-à-go-go-related gene) potassium channel current (a surrogate for IKr, the rapidly activating delayed rectifier cardiac potassium current).
All chemicals used in solution preparation were purchased from Sigma-Aldrich (St. Louis, Mo.) unless otherwise noted and were of ACS reagent grade purity or higher. Stock solutions of the test article and the positive control were prepared in dimethyl sulfoxide (DMSO) and stored frozen. Test article and positive control concentrations were prepared fresh daily by diluting stock solutions into a HEPES-buffered physiological saline (HB-PS) solution (composition in mM): NaCl, 137; KCl, 4.0; CaCl2, 1.8; MgCl2, 1; HEPES, 10; Glucose, 10; pH adjusted to 7.4 with NaOH (prepared weekly and refrigerated until use).
HEK/hERG • Organism: Homo sapiens • Designation: 293 • Tissue: Kidney; Transformed with adenovirus 5 DNA; Transfected with human-ether-a-go-go cDNA • Morphology: Epithelial • Age Stage Embryo • Source Strain: ATCC, Manassas, Va. • Source Substrain ChanTest Corporation, Cleveland, Ohio
HEK293 cells were stably transfected with hERG cDNA. Stable transfectants were selected by coexpression with the G418-resistance gene incorporated into the expression plasmid. Selection pressure was maintained by including G418 in the culture medium. Cells were cultured in Dulbecco's Modified Eagle Medium/Nutrient Mixture F-12 (D-MEM/F-12) supplemented with 10% fetal bovine serum, 100 U/mL penicillin G sodium, 100 μg/mL streptomycin sulfate and 500 μg/mL G418.
All experiments were performed at room temperature. Each cell acted as its own control.
Experiments were performed as outlined in the section entitled Experimental Procedures. Concentrations were selected to evaluate the concentration-response relationship of each test article based on the initial results or the solubility limits in vehicle. Each concentration was tested in at least three cells (n≧3).
Cells were transferred to the recording chamber and superfused with vehicle control solution. Micropipette solution for whole cell patch clamp recordings was composed of (mM): potassium aspartate, 130; MgCl2, 5; EGTA, 5; ATP, 4; HEPES, 10; pH adjusted to 7.2 with KOH. Pipette solution was prepared in batches, aliquoted, stored frozen, and a fresh aliquot was thawed each day. Patch pipettes were made from glass capillary tubing using a P-97 micropipette puller (Sutter Instruments, Novato, Calif.). A commercial patch clamp amplifier was used for whole cell recordings. Before digitization, current records were low-pass filtered at one-fifth of the sampling frequency.
Onset and steady state inhibition of hERG current was measured using a pulse pattern with fixed amplitudes (conditioning prepulse: +20 mV for 2 s; test pulse: −50 mV for 2 s) repeated at 10 s intervals, from a holding potential of −80 mV. Peak tail current was measured during the 2 s step to −50 mV.
Each test article at 10 μM was applied to at least 3 cells (n≧3).
One or more test article concentrations were applied sequentially (without washout between test substance concentrations) in ascending order, to each cell (n≧3). A steady state was maintained for at least 30 s before applying test article or positive control. Peak current was measured until a new steady state was achieved.
Steady state was defined by the limiting constant rate of change with time (linear time dependence). The steady state before and after test article application was used to calculate the percentage of current inhibited at each concentration. […]
A general note: Patch clamp records ionic current or voltage across a cell membrane.

The structures appear in SMILES notation.

Usually IC50 stands for the midpoint of a concentration-inhibition curve. Broadly, the melting point is the temperature of the solid-liquid transition. Consider `CC(C)(C)NCc1cc(C(C)(C)C)cc(-c2ccc(S(C)(=O)=O)nc2)c1O.Cl` [Example 43, 4-(tert-Butyl)-2-((tert-butylamino)methyl)-6-(6-(methylsulfonyl)pyridin-3-yl)phenol hydrochloride], for which the melting point fell in the range of 229 to 232 °C. Moreover, the IC50 with P. falciparum strain D6 came out at 0.158 µM. In addition, the IC50 in the data set with P. falciparum strain W2 is 0.1 µM.
Take `CC(C)(C)NCc1cc(C(C)(C)C)cc(-c2ccc(Cl)cc2)c1O` [WR-194,965, 4-(tert-butyl)-2-(tert-butylaminomethyl)-6-(4-chlorophenyl)phenol, reference compound]: the IC50 on hERG potassium channel (HEK293/hERG, patch clamp, read-out: IC50 for the inhibitory effect on hERG potassium current) is 1.1 µM. For the same compound, on hERG potassium channel (fit of concentration-response data), the “Hill coefficient of hERG inhibition” value stood at 1.4. For the same compound, the inhibition at 0.3 µM at hERG potassium channel (human, HEK293 cells stably expressing hERG, pH 7.4, 0.3 μM, HEK293/hERG, room temperature, read-out: Mean percentage of hERG current inhibited) came to 12.8%. Further, on hERG potassium channel (human, HEK293 cells stably expressing hERG, pH 7.4, 1 μM, HEK293/hERG, room temperature, read-out: Mean percentage of hERG current inhibited), the inhibition at 1 µM stood at 47.5%. The inhibition at 3 µM on hERG potassium channel (human, HEK293 cells stably expressing hERG, pH 7.4, 3 μM, HEK293/hERG, room temperature, read-out: Mean percentage of hERG current inhibited) turned out to be 80.3%. Also, the inhibition at 10 µM at hERG potassium channel (human, HEK293 cells stably expressing hERG, pH 7.4, 10 μM, HEK293/hERG, room temperature, read-out: Mean percentage of hERG current inhibited) came out at 97.2%.
